In ChEMBL document CHEMBL1126495, “A new series of potent LTD4 antagonists in the styrylquinoline class” (Bioorg Med Chem Lett, 1993) one finds IC50 data, which are given here for 13 compounds.

The structures appear in SMILES notation.

The target in this assay is T1, Cysteinyl leukotriene receptor 1 (Cavia porcellus, UniProt Q2NNR5).
T1 sequence (Q2NNR5 whole entry): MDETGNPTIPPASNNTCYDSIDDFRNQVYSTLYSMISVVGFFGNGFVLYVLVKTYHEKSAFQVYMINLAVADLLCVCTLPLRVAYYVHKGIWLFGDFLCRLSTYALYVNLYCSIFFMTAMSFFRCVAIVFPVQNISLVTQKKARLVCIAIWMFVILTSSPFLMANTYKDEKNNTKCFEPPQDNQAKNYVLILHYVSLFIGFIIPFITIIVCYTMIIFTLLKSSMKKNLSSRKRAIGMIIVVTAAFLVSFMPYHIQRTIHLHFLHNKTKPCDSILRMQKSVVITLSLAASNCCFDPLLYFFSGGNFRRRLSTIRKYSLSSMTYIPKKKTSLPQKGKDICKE
As to the kind of experiment: Inhibition of [3H]LTD4 binding to guinea-pig lung membrane. The format is tissue-based.
In the case of `CC(C)(O)CCCSC(CCC(C)(C)CC(=O)O)c1cccc(/C=C/c2ccc3ccc(Cl)cc3n2)c1` (stereo not drawn), the concentration for half-maximal inhibition (IC50) – broadly, the concentration that gives 50% inhibition – stood at 1.3 nM.

Regarding `CC(CC[C@H](SCCCC(C)(C)O)c1cccc(/C=C/c2ccc3ccc(Cl)cc3n2)c1)CC(=O)O` (stereo partly drawn), the half-inhibitory concentration (IC50) was determined as 0.5 nM.

Consider `CC(C)(O)c1ccccc1CS[C@@H](CCC1(CC(=O)O)CC1)c1cccc(CCc2ccc3ccc(Cl)cc3n2)c1`, for which the half-maximal inhibitory concentration (IC50) is 1.4 nM.

The compound `CC(C)(CC[C@@H](SCc1ccccc1C(C)(C)O)c1cccc(CCc2ccc3ccc(Cl)cc3n2)c1)CC(=O)O` registered a half-maximal inhibitory concentration (IC50) of 1.9 nM.

Compound `CC(C)(CC[C@H](SCc1ccccc1C(C)(C)O)c1cccc(CCc2ccc3ccc(Cl)cc3n2)c1)CC(=O)O` had a half-maximal inhibitory concentration (IC50) of 0.6 nM.

Regarding `CC(C)(CC[C@@H](SCc1ccccc1C(C)(C)O)c1cccc(/C=C/c2ccc3ccc(Cl)cc3n2)c1)CC(=O)O`, the IC50 is 1 nM.

As to `CC(C)(CC[C@H](SCc1ccccc1C(C)(C)O)c1cccc(/C=C/c2ccc3ccc(Cl)cc3n2)c1)CC(=O)O`, the half-inhibitory concentration (IC50) turned out to be 0.6 nM.

As for `CC(C)(CC[C@H](SCc1ccccn1)c1cccc(CCc2ccc3ccc(Cl)cc3n2)c1)CC(=O)O`, the half-inhibitory concentration (IC50) stood at 1.6 nM.

Take `C[C@H](CCC[C@@H](SCCC(C)(C)O)c1cccc(/C=C/c2ccc3ccc(Cl)cc3n2)c1)C(=O)O`: the IC50 was determined as 0.8 nM.

In the case of `CC(C)(CC[C@H](SCCc1ccccn1)c1cccc(CCc2ccc3ccc(Cl)cc3n2)c1)CC(=O)O`, the concentration for half-maximal inhibition (IC50) was 2.2 nM. This IC50 is about 2.8-fold higher than that of the compound before.

The compound `C[C@H](CCC[C@H](SCCC(=O)N(C)C)c1cccc(/C=C/c2ccc3ccc(Cl)cc3n2)c1)C(=O)O` gave a half-maximal inhibitory concentration (IC50) of 2.3 nM.

Take `C[C@H](CCC[C@@H](SCCC(=O)N(C)C)c1cccc(/C=C/c2ccc3ccc(Cl)cc3n2)c1)C(=O)O`: the half-inhibitory concentration (IC50) was 0.9 nM. Compared with the last compound, the IC50 is about 2.6-fold lower.

In turn, `C[C@H](CCC[C@H](SCCC(C)(C)O)c1cccc(/C=C/c2ccc3ccc(Cl)cc3n2)c1)C(=O)O` came in with an IC50 of 2 nM.
